Key:
SCD1 = molecular target: T1, SCD1 (Homo sapiens, UniProt O00767); assay: Growth inhibition of humanized yeast strain expressing SCD1 as sole desaturase; assay type: cell-based
T1 construct: host or cells: S. cerevisiae ole1Δ strain (W303 pdr1Δ pdr3Δ background), plasmid pRS316 with TDH3 promoter and CYC1 terminator
T1 sequence (O00767 1-359): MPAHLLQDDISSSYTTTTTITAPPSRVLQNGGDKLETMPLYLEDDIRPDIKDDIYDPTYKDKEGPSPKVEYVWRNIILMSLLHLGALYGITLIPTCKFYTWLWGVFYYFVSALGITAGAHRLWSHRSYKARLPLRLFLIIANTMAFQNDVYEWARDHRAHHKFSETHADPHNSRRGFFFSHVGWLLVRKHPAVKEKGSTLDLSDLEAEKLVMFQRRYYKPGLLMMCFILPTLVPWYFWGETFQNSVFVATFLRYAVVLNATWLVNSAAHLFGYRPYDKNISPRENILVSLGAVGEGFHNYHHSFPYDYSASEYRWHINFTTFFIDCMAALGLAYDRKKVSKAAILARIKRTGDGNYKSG
Method in brief: (§1)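 Measured by optical density at 600 nm, growth of desaturase-dependent yeast (OLE1 deleted; human SCD1, human SCD5 or yeast Ole1 supplied from plasmid) was scored after 24 h (Ole1) or 40 h (SCD1, SCD5) at 30° C. in galactose media lacking uracil with DMSO-delivered compound.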

SCD5 = molecular target: T2, SCD5 (Homo sapiens, UniProt Q86SK9); assay: Growth inhibition of humanized yeast strain expressing SCD5 as sole desaturase; assay type: cell-based
T2 construct: host or cells: S. cerevisiae ole1Δ strain (W303 pdr1Δ pdr3Δ background), plasmid pRS316 with TDH3 promoter and CYC1 terminator
T2 sequence (Q86SK9 1-330): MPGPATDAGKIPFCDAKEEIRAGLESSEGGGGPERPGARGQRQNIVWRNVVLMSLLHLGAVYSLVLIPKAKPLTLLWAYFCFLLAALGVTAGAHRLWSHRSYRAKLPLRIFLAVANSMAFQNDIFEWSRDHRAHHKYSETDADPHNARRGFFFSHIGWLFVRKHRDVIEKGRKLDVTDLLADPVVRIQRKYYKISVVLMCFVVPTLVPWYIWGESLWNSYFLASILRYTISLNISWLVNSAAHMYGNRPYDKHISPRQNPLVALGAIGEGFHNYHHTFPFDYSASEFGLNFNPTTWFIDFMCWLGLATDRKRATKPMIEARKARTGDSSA
Method in brief: as §1

[1] = growth inhibition of humanized yeast strain expressing human SCD1
[2] = growth inhibition of humanized yeast strain expressing human SCD5
[3] = humanized yeast strain expressing SCD1
[4] = humanized yeast strain expressing SCD5

SMILES	IC50 (SCD1; humanized yeast strain, 40 h)	IC50 (SCD5; humanized yeast strain, 40 h)	also measured
COC(=O)N1CCC(c2noc(-c3ccc4cn(C5CCN(C)C5=O)nc4c3)n2)CC1 (stereo not shown) [Compound 1102]	> 45 µM	> 45 µM	–
CC(C)(C)OC(=O)N1CCC(c2noc(-c3cc(F)cc(N4CCOCC4)c3)n2)CC1 [Compound 1086]	> 45 µM	0.019 µM	–
Cc1nnc(N2CCC(c3nc(-c4ccc5cnn(C(C)C)c5c4)no3)CC2)o1 [Compound 704]	–	–	IC50 (SCD1; [1]): > 45 µM; IC50 (SCD5; [2]): 1.68 µM
CC(C)n1ccc2ccc(-c3nc(C4CCN(C(=O)OC(C)(C)C)CC4)no3)cc21 [Compound 1048]	> 45 µM	0.016 µM	–
O=C(N1CCN(c2nnc(-c3ccc4cnn(C5COC5)c4c3)o2)CC1)C12CC(C1)C2 [Compound 994]	> 45 µM	> 45 µM	–
CC(C)(C)OC(=O)N1CCC(c2noc(-c3cc(F)c4cnn(C5CCOC5)c4c3)n2)CC1 (stereo not shown) [Compound 1075]	4.4 µM	0.01 µM	–
CC(C)(C)OC(=O)N1CCC(c2nc(-c3ccc4cnn(C5CS(=O)(=O)C5)c4c3)no2)CC1 [Compound 690]	–	–	IC50 (SCD1; [1]): > 45 µM; IC50 (SCD5; [2]): 0.131 µM
Clc1cnc2n1CCN(c1noc(-c3ccc4cn[nH]c4c3)n1)C2 [Compound 904]	> 45 µM	7.62 µM	–
C[C@@H]1C[C@@H](c2noc(-c3ccc4cnn(C5COC5)c4c3)n2)CCN1C(=O)OC(C)(C)C [Compound 1019]	12.2 µM	0.01 µM	–
COCCc1nn(C(C)C)c2cc(-c3noc(C4CCN(C(=O)OC(C)(C)C)CC4)n3)ccc12 [Compound 702]	–	–	IC50 (SCD1; [1]): > 45 µM; IC50 (SCD5; [2]): > 45 µM
C=C(C)c1ccc(C(=O)N2CCC(c3nc(-c4ccc5cnn(C)c5c4)no3)CC2)nc1 [Compound 501]	–	–	IC50 (SCD1; [3]): 12.2 µM; IC50 (SCD5; [4]): 21.3 µM
COC(=O)N1CCN(c2nc(-c3ccc4cnn(C(C)C)c4c3)no2)CC1 [Compound 356]	–	–	SCD1 % Max Inhibition (SCD1; [3]): 51.18%; IC50 (SCD5; [4]): > 45 µM; SCD5 % Max Inhibition (SCD5; [4]): 2.88%
CC(C)(C)OC(=O)N1CCN(c2nc(-c3ccc4cnn(C5CCC5)c4c3)no2)CC1 [Compound 721]	–	–	IC50 (SCD1; [1]): > 45 µM; IC50 (SCD5; [2]): 1.65 µM
CC(C)n1ncc2ccc(-c3noc(N4C[C@@H]5CN(C(=O)OC(C)(C)C)C[C@H]5C4)n3)cc21 [Compound 513]	–	–	IC50 (SCD1; [3]): > 45 µM; IC50 (SCD5; [4]): > 45 µM
CC(C)C(=O)N1CCC(c2noc(-c3ccnc(Cl)c3)n2)CC1 [Compound 1129]	> 45 µM	> 45 µM	–
CC(C)n1ncc2ccc(-c3noc(C4CCNCC4(F)F)n3)cc21 (stereo not shown) [Compound 508]	–	–	IC50 (SCD1; [3]): > 45 µM; IC50 (SCD5; [4]): > 45 µM
CC(C)(C)OC(=O)N1CCC(c2cc(-c3cc4c(cn3)cnn4C3COC3)no2)CC1 [Compound 1144]	1.78 µM	0.01 µM	–
CC(C)n1ncc2ccc(-c3noc(N4CCN(C(=O)OC5(C)CC5)CC4)n3)cc21 [Compound 496]	–	–	IC50 (SCD1; [3]): > 45 µM; IC50 (SCD5; [4]): 0.445 µM
COC(=O)N1CCC(c2noc(-c3ccc(N4CCOCC4)cc3)n2)CC1 [Compound 1163]	> 45 µM	> 45 µM	–
CC(C)(C)OC(=O)N1CCC(c2nc(N3CCC34COC4)no2)CC1 [Compound 783]	> 45 µM	> 45 µM	–
CC(C)(C)CC(=O)N1CCC(c2nc(-c3cccc(C4CCOC4)c3)no2)CC1 (stereo not shown) [Compound 782]	> 45 µM	0.149 µM	–
O=C(C1CCC1)N1CCC(c2noc(-c3ccc4oc(=O)n(C5COC5)c4c3)n2)CC1 [Compound 1127]	> 45 µM	1.47 µM	–
CC(C)n1ncc2ccc(-c3noc(C4(O)CCN(C(=O)OC(C)(C)C)CC4)n3)cc21 [Compound 832]	> 45 µM	11.6 µM	–
Cc1nn(C)c2cc(-c3noc(C4CCN(C(=O)CNC(=O)OC(C)(C)C)CC4(F)F)n3)ccc12 (stereo not shown) [Compound 527]	–	–	IC50 (SCD1; [3]): 0.958 µM; IC50 (SCD5; [4]): 1.46 µM

SMILES	IC50 (SCD1; humanized yeast strain, 40 h)	IC50 (SCD5; humanized yeast strain, 40 h)	also measured
CCC(=O)N1CCC(c2noc(-c3ccc4cnn(C5CCOC5)c4c3)n2)CC1 (stereo not shown) [Compound 975]	> 45 µM	0.01 µM	–
COC(=O)N1CCC(c2noc(-c3ccc4cnn(C5CCS(=O)(=O)C5)c4c3)n2)CC1 (stereo not shown) [Compound 1077]	> 45 µM	0.3 µM	–
C[C@H]1C[C@H](c2noc(-c3ccc4cnn(C5COC5)c4c3)n2)CCN1C(=O)C1(F)CC1 [Compound 1053]	> 45 µM	0.00118 µM	–
CC(C)(C)OC(=O)N1CCC(c2nc(-c3ccc4cnn(C5CC(F)(F)C5)c4c3)no2)CC1 [Compound 742]	–	–	IC50 (SCD1; [1]): > 45 µM; IC50 (SCD5; [2]): 5.05 µM
Cn1ccc(-c2cc(-c3nc(C4CCN(C(=O)OC5(C)CC5)CC4)no3)ccn2)n1 [Compound 1185]	> 45 µM	> 45 µM	–
CC(C)(C)OC(=O)N1CCN(c2noc(-c3ccc4cnn(C5CNC5)c4c3)n2)CC1 [Compound 932]	> 45 µM	0.01 µM	–
O=C(N1CCC(c2noc(-c3ccc4cnn(C5COC5)c4c3)n2)CC1)C1(F)CCC1 [Compound 1029]	> 45 µM	0.01 µM	–
CC(C)n1ncc2ccc(-c3noc(C4CCN(C(=O)OC(C)(C)C)C=C4F)n3)cc21 (stereo not shown) [Compound 509]	–	–	IC50 (SCD1; [3]): > 45 µM; IC50 (SCD5; [4]): > 45 µM
CC(C)Nc1cc(-c2nc(N3CCN(C(=O)OC(C)(C)C)CC3)no2)ccn1 [Compound 809]	> 45 µM	0.124 µM	–
COC(=O)N1CCC(c2noc(-c3cc4c(cnn4C4COC4)cc3F)n2)CC1 [Compound 944]	> 45 µM	2.22 µM	–
CC(C)c1ncn2ccc(-c3nc(C4CCN(C(=O)OC(C)(C)C)CC4)no3)cc12 [Compound 1040]	> 45 µM	0.791 µM	–
COC(=O)N1CCC(c2noc(-c3ccc4cnc(C5COC5)n4c3)n2)CC1 [Compound 917]	> 45 µM	0.1 µM	–
COC1(C(=O)N2CCC(c3noc(-c4ccc5cnn(C(C)C)c5c4)n3)CC2)CC1 [Compound 799]	> 45 µM	0.01 µM	–
COC(=O)N1CC[C@H](c2noc(-c3ccc4cnn(C5COC5)c4c3)n2)C[C@H]1C [Compound 1059]	> 45 µM	0.00223 µM	–
CC(C)n1ncc2ccc(-c3nc(C4CCN(C(=O)CC5CC5)CC4)no3)cc21 [Compound 853]	> 45 µM	0.01 µM	–
CC(C)(C)OC(=O)N1CCC(c2nc(-c3ccc4cn(C5CCCOC5)nc4c3)no2)CC1 (stereo not shown) [Compound 719]	–	–	IC50 (SCD1; [1]): > 45 µM; IC50 (SCD5; [2]): > 45 µM
CC(C)(C)OC(=O)N1CCC(c2noc(-c3ccc4cnn(C5COC5)c4c3)n2)CC1 [Compound 643]	–	–	IC50 (SCD1; [1]): > 45 µM; IC50 (SCD5; [2]): 0.01 µM
CC(C)n1ncc2c1CN(c1noc(C3CCN(C(=O)OC(C)(C)C)CC3)n1)CC2 [Compound 893]	> 45 µM	0.01 µM	–
CC(C)(C)OC(=O)N1CCC(c2noc(-c3cccc(C4CCCO4)c3)n2)CC1 (stereo not shown) [Compound 812]	> 45 µM	0.01 µM	–
CC(C)n1nc(CO)c2ccc(-c3noc(C4CCN(C(=O)OC(C)(C)C)CC4)n3)cc21 [Compound 781]	> 45 µM	4.8 µM	–
COC1(C(=O)N2CCC(c3noc(-c4ccc5cnn(C6COC6)c5c4)n3)CC2)CC1 [Compound 902]	> 45 µM	0.01 µM	–
COC(=O)N1CCN(c2nc(-c3cccc(C4CCOC4)c3)no2)CC1 (stereo not shown) [Compound 837]	> 45 µM	12.5 µM	–
CC(C)C(=O)N1CCC(c2noc(-c3ccc4cnn(C5CCOC5)c4c3)n2)CC1 (stereo not shown) [Compound 1024]	> 45 µM	0.01 µM	–
CCC(=O)N1CCC(c2noc(-c3ccc(F)c(N4CCOCC4)c3)n2)CC1 [Compound 1164]	> 45 µM	0.54 µM	–

Source: patent US11873298B2, “Compounds and uses thereof” (JANSSEN PHARMACEUTICA NV, priority 2017, dated 2024)
